Data as given in patent US8987209B2, “N-carboxyalkyl-auristatin and the use thereof” (Seattle Genetics, Inc., priority 2010, dated 2015).
pIC50: −log10 of the molar value. Square brackets hold non-standard residues; d marks the D form. Peptide text beside a SMILES is read from it. * marks the point of attachment. Dolaproine = CO[C@@H]([C@@H]1CCCN1)[C@@H](C)C(=O)O; Dil = CC[C@H](C)[C@H](NC)[C@@H](CC(=O)O)OC; X5 = C[C@@H](N*)[C@@H](O)c1ccccc1; NMeV = CN[C@H](C(=O)O)C(C)C

Key:
[1] = tested on: human renal carcinoma cell line 786-0; assay: Anti-proliferative effect on renal cell carcinoma 786-0 cell line (MTT assay); format: cell-based; details: 786-0 cells, incubation 48 to 96 hours, serum free medium or 2% FCS
Protocol: B-1. Determination of Anti-proliferative Effects of Renal Cell Carcinoma 786-0 Cell Line:
A defined number of cells of the human renal carcinoma cell line 786-0 were cultured in a 96 well micro titer plate in rich medium (2500 or 7.000 cells/well) and then incubated over night at 37° C./5% CO2. After 18 hours the seed medium was replaced by a serum free medium or medium with 2% FCS. The treatment began with measuring out the respective test substances in varying concentrations (10^−5 M to 10^−14 M). Incubation times of between 48 hours and 96 hours were chosen. The proliferation was determined by means of the MTT assay (ATCC, Manassas, Va., USA, catalogue no. 30-1010K). After completion of incubation period the MTT reagent was incubated with the cells for 4 hours before lysis occurred over night by measuring out the detergent. The created stain was detected at 570 nm. The proliferation of the cells, which were treated identically to the other cells but without the test substance was defined as the 100% value. The data obtained from this test represent triple determinations and at least two experiments had been carried out independently of each other.

HT-29 wt cell line = assay: Anti-proliferative effect on HT-29 wt cell line (MTT assay); format: cell-based, human; details: HT-29 wt cells, incubation 48 to 96 hours, medium with 10% FCS
Protocol: B-2. Determination of Anti-proliferative Effects of HT-29 wt Cell Line:
After 18 hours the seed medium was replaced by a fresh medium with 10% FCS. The treatment started with measuring out the respective test substance. The dose-response curves were determined of the investigative substances with a concentration of 10^−5 M to 10^−14 M (1:10 dilutions). Incubation times of between 48 hours and 96 hours were chosen. The proliferation was detected by means of the MTT assay (ATCC, Manassas, Va., USA, catalogue no. 30-1010K). After completion of selected incubation period the MTT reagent was incubated with the cells for 4 hours before lysis occurred over night by measuring out the detergent. The created stain was detected at 570 nm. The proliferation of the cells, which were treated identically to the other cells but without the test substance, was defined as the 100% value. The data obtained from this test represent triple determinations and at least two experiments had been carried out independently of each other.

Caco-2-cells = assay: Cell permeability, flux assay using Caco-2 cells; format: in vitro ADME; details: basal to apical, 2 hours incubation
Protocol: (§1) B-5. Determination of Cell Permeability:
(§2) The cell permeability of a substance can be analyzed by means of in vitro tests in a flux assay using Caco-2-cells [M. D. Troutman and D. R. Thakker, Pharm. Res. 20 (8), 1210-1224 (2003)]. For this analysis the cells were cultured on 24 membrane filter plates for 15 to 16 days. In order to determine permeation the test substance in question was given either apical (A) to a HEPES buffer or basal (B) on the cells and incubated for 2 hours. The samples were withdrawn after 0 and 2 hours from the cis and trans compartments. The samples were separated by means of HPLC (Agilent 1200, Böblingen, Germany) using reverse-phase columns. The HPLC system was coupled to a triple quadropol mass spectrometer API 4000 (Applied Biosystems Applera, Darmstadt, Germany) via a turbo ion spray. The permeability was evaluated by means of the Papp value which was calculated with the help of the formula published by Schwab et al. [D. Schwab et al., J. Med. Chem. 46, 1716-1725 (2003)]. A substance was classified as active if the ratio of Papp (B-a) to Papp (A-B) was >2 or <0.5.
(§3) The permeability from B to A [Papp^(B-A)] is particularly important for toxophores which are being released intracellular: The lower the permeability the longer the residence time of the substance in the cell after intracellular release and, consequently, the more time available for interaction with the biochemical target (here: tubulin).

[2] = Cell permeability, flux assay using Caco-2 cells; format: in vitro ADME; details: human, basal to apical, 2 hours incubation
Protocol: as §1, §2, §3

SMILES	pIC50 [1]	pIC50 (HT-29 wt cell line)	Papp (B-A) (Caco-2-cells) [×10⁻⁶ cm/s]	pIC50 ([1]; Homo sapiens)	pIC50 (HT-29 wt cell line; Homo sapiens)	Papp B→A at 2 h [2] [×10⁻⁶ cm/s]
CC[C@H](C)[C@@H]([C@@H](CC(=O)N1CCC[C@H]1[C@H](OC)[C@@H](C)C(=O)N[C@@H](Cc1ccccc1)C(=O)O)OC)N(C)C(=O)[C@@H](NC(=O)[C@@H](NC)C(C)C)C(C)C [MMAF, Monomethylauristatin F, reference compound] (H-[NMeV]V[Dil][Dolaproine]F-OH)	6.59	8.00	7.3	–	–	–
CCCNC(=O)[C@]1(NC(=O)[C@H](C)[C@@H](OC)[C@@H]2CCCN2C(=O)C[C@@H](OC)[C@H]([C@@H](C)CC)N(C)C(=O)[C@@H](NC(=O)[C@H](C(C)C)N(C)CCCC(=O)O)C(C)C)C[C@@H]1c1ccccc1 [Example 11, N-(3-carboxypropyl)-N-methyl-L-valyl-N-[(3R,4S,5S)-3-methoxy-1-{(2S)-2-[(1R,2R)-1-methoxy-2-methyl-3-oxo-3-{[(1S,2R)-2-phenyl-1-(propylcarbamoyl)cyclopropyl]amino}propyl]pyrrolidin-1-yl}-5-methyl-1-oxoheptan-4-yl]-N-methyl-L-valinamide]	–	–	–	8.17	9.10	1.1
CC[C@H](C)[C@@H]([C@@H](CC(=O)N1CCC[C@H]1[C@H](OC)[C@@H](C)C(=O)N[C@H](C)[C@@H](O)c1ccccc1)OC)N(C)C(=O)[C@@H](NC(=O)[C@@H](NC)C(C)C)C(C)C [MMAE, monomethylauristatin E, reference compound] (H-[NMeV]V[Dil][Dolaproine]-X5)	–	–	8.9	–	–	–
